# Test results: publication PMC12329412, “Study of the mass balance, biotransformation, and safety of [^14C]IBI351 in healthy Chinese subjects” (Journal of Biomedical Research, 2024)
# “And” between values parts separate entries of the source, which are not always exact repeats. Identical values can stand only once.
# What was measured:
# Assay type in all cases: in vivo, human
# [1] = Mass balance: recovery of total radioactivity in urine and feces; conditions: for Radioactivity excreted in feces / Radioactivity excreted in urine / Total radioactive excretion in urine and feces: 0–312 h, mean±SD, n=6
# Experimental: This was a single-center, single-dose, open-trial study involving six healthy Chinese male subjects. They received a single dose of 600 mg/150 μCi [^14C]IBI351 on day 1 after fasting for at least 10 h. Blood, urine, and fecal samples were collected at specified time points or intervals within 15 days (0–336 h) following the administration of [^14C]IBI351.
# Urine and fecal samples were collected for mass balance analysis and metabolite profiling. Urine samples were collected in polyethylene containers during the following time periods (in hours): −24–0 (pre-dosing), 0–4, 4–8, 8–12, 12–24, and at 24-h intervals thereafter (post-dosing) and stored at 4 ℃ during the collection period. Fecal samples were collected during the following periods (in hours): −24–0 (pre-dosing), 0–24, and at 24-h intervals thereafter (post-dosing). The collection of urine and fecal samples was terminated when the TRA in the combined biological samples (urine + feces) from each subject exceeded 90% of the administered dose. Additionally, the radioactivity in samples collected over two consecutive days should be less than 1% of the administered dose. The samples were weighed in special containers and stored at −10 ℃ to −30 ℃ until analysis.
# (§1) Blood, plasma, urine, and fecal samples were analyzed for TRA using the Tri-Carb model 3110 TR liquid scintillation counter (PerkinElmer, Waltham, MA, USA). Blood samples were divided into two parallel portions (0.5 g) and completely burned by OX-501 oxidizer (R.J. Harvey, Tappan, NY, USA). Finally, the samples were analyzed by liquid scintillation counting. Plasma (0.5 g) and urine (1 g) samples were directly analyzed by liquid scintillation counting. Fecal samples were first homogenized with isopropanol/water (50/50, v/v). The excretion of radioactivity in the urine and feces, referring to the cumulative recovery of total radioactive material in each time period, was defined as the sum of the percentage of TRA in the urine and feces relative to the administered dose. The TRA in each sample during a time period and the percentage of TRA related to the administered dose (% of dose) were calculated using the following formula: % of dosage = (TRA detected in the sample/radioactive dosage) × 100%.
# [2] = Radioactive metabolite profiling in pooled plasma, urine and feces
# Experimental: Moreover, four plasma samples at 1 h, 4 h, 48 h, and 96 h were obtained by mixing them in equal volumes. Urine samples were pooled across individuals at an equal volume to obtain one pooled sample within each time period of 0–24 h, 24–48 h, and 48–96 h. Fecal samples (0–192 h) were pooled at the same weight percentages across collection intervals for each subject. Moreover, fecal samples were pooled across individuals at an equal weight to obtain one pooled sample within each time period of 0–72 h, 72–120 h, and 120–192 h. Plasma, urine, and fecal homogenates were extracted and concentrated using organic solvents, and then the redissolved solutions were used for metabolite profile analysis. The plasma, urine, and fecal extracts were separated on HPLC columns, and the HPLC flow fractions were collected in Deepwell LumaPlateTM-96 plates at 15 s/fraction using an automatic fraction collector. The radioactivity of each fraction was quantified using a microplate detector with ARC® Convert and Evaluation software (3.0.2.379) and transformed to obtain the radioactive metabolite spectra. The radioactive metabolite spectra of each sample were integrated to acquire the peak area of each radioactive metabolite peak, the proportion of each spectral peak to the total radioactive intensity of the sample, and the proportion of the radioactivity of the major metabolites to the TRA in the corresponding blood, urine, and fecal samples. Therefore, the ratio of metabolites' concentrations to the total drug exposure (AUC) in the plasma and the ratio of each metabolite's level to the dose administered in the urine and feces were calculated. Liquid chromatography with low-energy radionuclide detection and mass spectrometry was used to identify the main metabolites in human plasma, urine, and fecal samples and to identify the possible biotransformation pathways of IBI351 in these samples.
# [3] = Ratio of total radioactivity in whole blood to plasma; conditions: Mean±SD, n=6
# Experimental: The endpoint of blood analysis was a plasma radioactivity concentration less than 1/8 of the baseline plasma value. Venous blood samples were collected from the six subjects (01101–01106) at the following time points (in hours): −1 (pre-dosing), 0.5, 1, 2, 4, 8, 12, 24, and at 24-h intervals (post-dosing). Whole blood aliquots were collected for radioactivity measurement, and blood samples were centrifuged (1500 [± 10] g, 4 ℃, 10 min) for metabolite identification. All samples were stored at −10–−30 ℃ until analysis.
# as §1
# The radioactivity in the whole blood and plasma is represented by the TRA ratio between the whole blood and plasma.
# [4] = individual subjects, rows in order 01101–01106, listed as [14C]IBI351
structure (smiles),measurement,setting,value
C=CC(=O)N1CCN2c3c(c(=O)n(-c4c(C)ccnc4C(C)C)c4nc(-c5c(O)cccc5F)c(Cl)cc34)N(C)C(=O)C2C1 (stereo not drawn) [IBI351],Radioactivity excreted in feces,[1],approximately 86.30 % of dose
same,Radioactivity excreted in urine,[1],9.27 % of dose
same,Total radioactive excretion in urine and feces,[1],95.56 % of dose
same,Radioactivity excreted in feces,[1]; listed as [14C]IBI351,86.30±4.90 % of dose
same,Radioactivity excreted in urine,[1]; listed as [14C]IBI351,9.27±1.83 % of dose
same,Total radioactive excretion in urine and feces,[1]; listed as [14C]IBI351,95.56±3.41 % of dose
same,Radioactivity excreted in feces,[1]; listed as [^14C]IBI351,86.30 % of dose
same,Radioactivity excreted in urine,[1]; listed as [^14C]IBI351,9.27 % of dose
same,Total radioactive excretion in urine and feces,[1]; listed as [^14C]IBI351,95.56 % of dose
same,Excretion rate,[1]; at 144 h (six days) post-dose,less than 1.00%
same,Urine and feces recovered radioactivity,"[1]; individual subjects, rows in order 01101–01106, 01105 normalized to 100.00%, listed as [14C]IBI351",92.36 % of dose and 94.47 % of dose and 91.45 % of dose and 96.48 % of dose and 100.00 % of dose and 98.61 % of dose
same,Feces recovered radioactivity,[1]; [4],80.29 % of dose and 87.83 % of dose and 92.67 % of dose and 89.35 % of dose and 80.67 % of dose and 86.99 % of dose
same,Urine recovered radioactivity,[1]; [4],11.69 % of dose and 7.48 % of dose and 11.16 % of dose and 8.65 % of dose and 7.33 % of dose and 9.26 % of dose
same,TRA excreted into the feces,"[1]; of the administered dose, from 0 h to 192 h",86.30%
same,TRA excreted into the urine and feces,"[1]; of the administered dose, period printed as 0–192 h",95.56%
same,Total radioactive content excreted in urine and feces within 120 h,"[1]; within 120 h (five days) after administration, on average",more than 90.00%
same,Feces (0–192 h) % of dose,[2]; pooled feces 0–192 h,9.71 % of dose
same,Plasma (0–144 h) % of AUC (share of total plasma radioactivity exposure),[2]; pooled plasma 0–144 h,4.54 % of AUC
same,Plasma (0–144 h) Metabolite/parent drug (%),"[2]; pooled plasma 0–144 h, relative to the parent drug",100.00%
same,Urine (0–96 h) % of dose,[2]; pooled urine 0–96 h,1.16 % of dose
same,Feces+urine % of dose,[2]; sum of feces 0–192 h and urine 0–96 h,10.87 % of dose
same,Ratio of whole blood to total plasma radioactivity,[3]; 0.50 h post-dose,0.655±0.0841
same,Ratio of whole blood to total plasma radioactivity,[3]; 1.00 h post-dose,0.716±0.0588
same,Ratio of whole blood to total plasma radioactivity,[3]; 4.00 h post-dose,0.606±0.0323
same,Ratio of whole blood to total plasma radioactivity,[3]; 12.0 h post-dose,0.571±0.0884
same,Ratio of whole blood to total plasma radioactivity,[3]; 24.0 h post-dose,0.626±0.0402
same,Ratio of whole blood to total plasma radioactivity,[3]; 48.0 h post-dose,0.670±0.0320
